# Data from patent publication US10195170B2, “Methods for inhibiting expression of ASC, expression of NLRP3, and/or formation of NLRP3 inflammasome complex using diacerein or its analogs” (TWi Biotechnology, Inc., priority 2015, dated 2019).
# Experiments:
# [1] = system: ASC; assay: Immunofluorescence staining (fluorescence confocal assay) of ASC in MSU-stimulated THP-1 cells; format: cell-based, human; conditions: PMA-primed THP-1 cells, then 100 μg/mL MSU for 6 hours
# Method: (§1) The 20 mg of rhein powder was dissolved in 1 mL 100% dimethyl sulfoxide (DMSO), sterilized by 0.22 μm pore filter membranes, and stored at −20° C. before use. The monosodium urate (MSU) crystal (10 mg/mL) was prepared in sterilized phosphate buffered saline (PBS). The adenosine […] disodium salt (ATP) was dissolved in ddH2O and sterilized by 0.22 μm pore filter membranes. THP-1, human acute monocytic leukemia cell line (ATCC® TIB-202), were suspended in RPMI-1640 medium (GIBCO, Life Technologies, Grand Island, USA) supplemented with 10% fetal bovine serum and 1% of antibiotics (penicillin-streptomycin-amphotericin B) conditioned media. For macrophage-like differentiation, THP-1 cells were primed by 0.1 μM phorbol myristyl acetate (PMA) for 24 hours. […] For cell viability, PMA-primed THP-1 cells were detected in the presence or absence of rhein incubation for 24 hours by the Cell Counting Kit-8 (CCK-8 assay, Sigma-Aldrich, St Louis, USA). […] Fluorescence confocal assay was performed to detect the human ASC and NLRP3 expression in paraformaldehyde-fixed THP-1 cells after treatment. […] The stained areas of ASC (green) and NLRP3 (red) staining distributions were quantified and analyzed by Metamorph analyzer. […] P-value was determined by the two-tailed unpaired t-test.
# [2] = system: NLRP3; assay: Immunofluorescence staining (fluorescence confocal assay) of NLRP3 in MSU-stimulated THP-1 cells; format: cell-based, human; conditions: PMA-primed THP-1 cells, then 100 μg/mL MSU for 6 hours
# Method: as §1
compound,measurement,setting,value
"O=C(O)c1cc(O)c2c(c1)C(=O)c1cccc(O)c1C2=O [rhein, 9, 10-dihydro-4,5-dihydroxy-9, 10-dioxo-2-anthracene carboxylic acid]","decrease of staining of ASC sections, average intensity of area/cell","[1]; rhein 5 μg/mL overnight (lower dose), P=0.0011",about 64.0%
same,"decrease of staining of ASC sections, average intensity of area/cell","[1]; rhein 10 μg/mL overnight (higher dose), P=0.0022",~79.0%
same,"inhibition of NLRP3 levels, average intensity of area/cell","[2]; rhein 5 μg/mL overnight (lower dose), P=0.014",about 62.5%
same,"inhibition of NLRP3 levels, average intensity of area/cell","[2]; rhein 10 μg/mL overnight (higher dose), P=0.0012",~84.1%
